Source: PubChem BioAssay (NCI)
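Protocol summary: plate cells (96-well), add compound at 5 concentrations, incubate 48 h, interpolate endpoints linearly. The concentration for full growth arrest is given as TGI.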

How the values were obtained:
Assay in all cases: NCI tumour cell line growth inhibition, 48 h
[1] = test system: HOP-62 NSCLC
[2] = test system: MALME-3M melanoma
[3] = test system: UACC-62 melanoma
[4] = test system: SNB-19 CNS
[5] = test system: HCT-15 colon
[6] = test system: K-562 leukemia
[7] = test system: SK-MEL-2 melanoma
[8] = test system: NCI-H226 lung
[9] = test system: SF-295 CNS
[10] = test system: SF-539 CNS
[11] = test system: NCI-H23 lung
[12] = test system: SN12C renal
[13] = test system: UACC-257 melanoma
[14] = test system: CAKI-1 renal
[15] = test system: SR leukemia

| Structure (SMILES) | TGI [1] [µM] | TGI [2] [µM] | TGI [3] [µM] | TGI [4] [µM] | TGI [5] [µM] | TGI [6] [µM] | TGI [7] [µM] | TGI [8] [µM] | TGI [9] [µM] | TGI [10] [µM] | TGI [11] [µM] | TGI [12] [µM] | TGI [13] [µM] | TGI [14] [µM] | TGI [15] [µM] |
| --- | --- | --- | --- | --- | --- | --- | --- | --- | --- | --- | --- | --- | --- | --- | --- |
| O=c1oc2ccccc2c(O)c1C(c1ccc2ccccc2c1)c1c(O)c2ccccc2oc1=O | > 100 | 57.5 | > 100 | > 100 | 47.5 | > 100 | > 100 | 67.9 | > 100 | 68.9 | 68.8 | 45.3 | > 100 | 54.7 |  |
| CC(C)CC(NC(=O)OCc1ccccc1)C(=O)NCCCCC(N)C(=O)NC(CCCCNC(=O)C(CC(C)C)NC(=O)OCc1ccccc1)C(=O)NC(CCCCNC(=O)C(CC(C)C)NC(=O)OCc1ccccc1)C(=O)NC(CCCCNC(=O)C(CC(C)C)NC(=O)OCc1ccccc1)C(=O)NC(CCCCNC(=O)C(CC(C)C)NC(=O)OCc1ccccc1)C(=O)NC(CCCCNC(=O)C(CC(C)C)NC(=O)OCc1ccccc1)C(=O)O (stereo unspecified) | > 100 | > 100 | > 100 | > 100 | > 100 | > 100 | > 100 | > 100 |  |  | > 100 | > 100 | > 100 |  | > 100 |
| C=C1[C@H](OCC(C)C)[C@@H](OCC(C)C)[C@@H](O)C(C)(C)/C=C/[C@H](C)C(=O)[C@@]2(O)C[C@H](C)[C@H](O)[C@@H]2[C@H]1OCC(C)C | > 7.5 |  | > 7.5 | > 7.5 | > 7.5 | > 7.5 | > 7.5 |  | > 7.5 | > 7.5 | > 7.5 | > 7.5 | > 7.5 | > 7.5 | > 7.5 |
| CC(C(O)c1ccccc1)N(C)/N=N/c1nc2c([nH]1)c(=O)n(C)c(=O)n2C (stereo unspecified) | > 100 | > 100 | > 100 | > 100 | > 100 | > 100 | > 100 | > 100 | > 100 |  | > 100 | > 100 | > 100 | > 100 |  |
| CCOC(=O)c1c(-c2ccc(Cl)cc2)c(C#N)c(=S)n(C2OC(CO)C(O)C(O)C2O)c1-c1ccccc1 (stereo unspecified) | 36 | > 100 | 38.2 | 52.4 | 85.6 | 70.9 | 50.2 |  | 40.3 | 35 | 72.7 | > 100 | 62.9 | 82.6 | > 100 |
| O=C1OC(c2ccccc2)(c2ccccc2)CC1CN1CCOCC1 (stereo unspecified) | > 100 | 26.6 | > 100 | > 100 | 29.6 | 78.7 | 36.5 |  |  | 32.6 | 43.9 | 25.1 | 20.9 |  | 8.43 |
| CN=C1Nc2ccccc2C(=S)N2CSC[C@@H]12 | > 100 | > 100 | > 100 | > 100 | > 100 | > 100 | > 100 |  | > 100 | > 100 | > 100 | > 100 |  | > 100 | > 100 |
| CCOC(=O)Cc1nc2nn(Cc3ccccc3)cc2c(=O)[nH]1 | > 100 | > 100 | > 100 | > 100 | > 100 | > 100 |  | > 100 | > 100 | > 100 | > 100 | > 100 | > 100 | > 100 |  |
| C=C(CO)[C@H]1CC/C(C)=C/CC/C(C)=C/C/C=C(\C)[C@H](O)C1 | > 100 |  | 58.4 | > 100 | > 100 | > 100 | 51.5 | 90.9 | > 100 | 40.8 | 86.9 | 81.7 | 39.7 | 75.1 |  |
| CSC1=N/C(=C\c2ccc(Cl)cc2)C(=O)N1CN1CCOCC1 | > 100 | > 100 | > 100 | > 100 | > 100 | > 100 | > 100 | > 100 | > 100 |  | > 100 | > 100 |  |  | > 100 |
| Cc1cc2c(cc1Cl)SC(NNC(=O)c1ccncc1)=NS2(=O)=O | > 10 | > 10 | > 10 | > 10 | > 10 | > 10 | > 10 | > 10 | > 10 | > 10 | > 10 | > 10 | > 10 | > 10 |  |
| BrC12C3C4C5C(C(C43)C13OCCO3)C52 (stereo unspecified) | > 100 | > 100 |  | > 100 |  | > 100 | > 100 |  | > 100 | > 100 | > 100 |  | > 100 |  |  |
| Cn1c(=S)[nH]c2c(Cl)cc(Cl)cc2c1=O | > 100 |  | > 100 | > 100 | > 100 |  | > 100 |  | > 100 | > 100 | > 100 | > 100 | > 100 | > 100 |  |
| O=C(/C=C/c1c(O)c2ccccc2[nH]c1=O)CC(=O)C(=O)Nc1cccc(O)c1 |  | > 100 | > 100 | > 100 | > 100 | > 100 | > 100 | > 100 | > 100 | > 100 | > 100 | > 100 | > 100 | > 100 |  |
| Cc1ccc(-c2cnc(NC3OC(COC(=O)c4ccccc4)C(OC(=O)c4ccccc4)C(OC(=O)c4ccccc4)C3OC(=O)c3ccccc3)s2)cc1 (stereo unspecified) | > 100 | > 100 | > 100 | > 100 | > 100 |  | > 100 | > 100 | > 100 |  | > 100 | > 100 | > 100 |  | > 100 |
| CCOC(=O)C1=C(C)C2C3C(=O)NC(=O)C3C1(C)C1C(=O)NC(=O)C21 (stereo unspecified) | > 100 | > 100 | > 100 | > 100 | > 100 | > 100 | > 100 | > 100 | > 100 | > 100 | > 100 | > 100 | > 100 |  |  |
